Source: ChEMBL document CHEMBL2346512, “Inhibitory effect of 4,4'-dihydroxy-α-truxillic acid derivatives on NO production in lipopolysaccharide-induced RAW 264.7 macrophages and exploration of structure-activity relationships” (Bioorg Med Chem Lett, 2013)

Assays:
[1] = Cytotoxicity against mouse RAW264.7 cells assessed as cell viability at 25 uM after 18 hrs by CCK-8 assay; type: cell-based; details: read-out: Activity
RAW264.7 [2] = assay: Inhibition of LPS-induced NO production in mouse RAW264.7 cells at 25 uM pretreated for 20 mins before LPS challenge measured after 18 hrs post LPS challenge by spectrophotometry; type: functional
RAW264.7 [3] = assay: Cytotoxicity against mouse RAW264.7 cells assessed as cell viability after 18 hrs by CCK-8 assay; type: cell-based; details: RAW264.7, 18 h
RAW264.7 [4] = assay: Inhibition of LPS-induced NO production in mouse RAW264.7 cells pretreated for 20 mins before LPS challenge measured after 18 hrs post LPS challenge by spectrophotometry; type: functional, cell-based
RAW264.7 [5] = assay: Cytotoxicity against mouse RAW264.7 cells assessed as cell viability up to 50 uM after 18 hrs by CCK-8 assay; type: cell-based; details: raw264.7, 18 h
RAW264.7 [6] = assay: Inhibition of LPS-induced NO production in mouse RAW264.7 cells at 100 uM pretreated for 20 mins before LPS challenge measured after 18 hrs post LPS challenge by spectrophotometry; type: functional
RAW264.7 [7] = assay: Inhibition of LPS-induced NO production in mouse RAW264.7 cells at 50 uM pretreated for 20 mins before LPS challenge measured after 18 hrs post LPS challenge by spectrophotometry; type: functional
RAW264.7 [8] = assay: Inhibition of LPS-induced NO production in mouse RAW264.7 cells at 12.5 uM pretreated for 20 mins before LPS challenge measured after 18 hrs post LPS challenge by spectrophotometry; type: functional

Compound | viability at 18 h, 25 µM [1] [%] | inhibition at 25 µM (RAW264.7 [2]) [%] | further results
O=C(OCCC1CCCCC1)[C@H]1[C@H](c2ccc(O)cc2)[C@H](C(=O)OCCC2CCCCC2)[C@H]1c1ccc(O)cc1 | 100 | 19.1 | –
O=C(OC1CCCCC1)[C@H]1[C@H](c2ccc(O)cc2)[C@H](C(=O)OC2CCCCC2)[C@H]1c1ccc(O)cc1 | 67.8 | 76 | IC50 (RAW264.7 [3]): 33 µM; IC50 (RAW264.7 [4]): 16.4 µM
O=C(OC1CCCCCC1)[C@H]1[C@H](c2ccc(O)cc2)[C@H](C(=O)OC2CCCCCC2)[C@H]1c1ccc(O)cc1 | 100 | 16 | –
O=C(OCC1CCCO1)[C@H]1[C@H](c2ccc(O)cc2)[C@H](C(=O)OCC2CCCO2)[C@H]1c1ccc(O)cc1 (stereo not given in full) | 96 | 10.2 | –
O=C(OC1CCOCC1)[C@H]1[C@H](c2ccc(O)cc2)[C@H](C(=O)OC2CCOCC2)[C@H]1c1ccc(O)cc1 | 100 | 18 | –
CC(C)(C)C1CCC(OC(=O)[C@H]2[C@H](c3ccc(O)cc3)[C@H](C(=O)OC3CCC(C(C)(C)C)CC3)[C@H]2c2ccc(O)cc2)CC1 (stereo not given in full) | 100 | 0 | –
CC(C)[C@@H]1CC[C@@H](C)C[C@H]1OC(=O)[C@H]1[C@H](c2ccc(O)cc2)[C@H](C(=O)O[C@@H]2C[C@H](C)CC[C@H]2C(C)C)[C@H]1c1ccc(O)cc1 | 98 | 72 | IC50 (RAW264.7 [3]): 60.3 µM; Activity (RAW264.7 [5]): Non-toxic; IC50 (RAW264.7 [4]): 17.5 µM
CC(C)[C@H]1CC[C@H](C)C[C@@H]1OC(=O)[C@H]1[C@H](c2ccc(O)cc2)[C@H](C(=O)O[C@H]2C[C@@H](C)CC[C@@H]2C(C)C)[C@H]1c1ccc(O)cc1 | 90 | 17.4 | –
O=C(OCC1CCCCC1)[C@H]1[C@H](c2ccc(O)cc2)[C@H](C(=O)OCC2CCCCC2)[C@H]1c1ccc(O)cc1 | 37 | 46.9 | IC50 (RAW264.7 [3]): 17.9 µM; IC50 (RAW264.7 [4]): 29.1 µM
CCC[C@H]1CC[C@H]([C@H]2CC[C@H](OC(=O)[C@H]3[C@H](c4ccc(O)cc4)[C@H](C(=O)O[C@H]4CC[C@H]([C@H]5CC[C@H](CCC)CC5)CC4)[C@H]3c3ccc(O)cc3)CC2)CC1 | 100 | 0 | –
CCC[C@H]1CC[C@H]([C@H]2CC[C@@H](OC(=O)[C@H]3[C@H](c4ccc(O)cc4)[C@H](C(=O)O[C@H]4CC[C@@H]([C@H]5CC[C@H](CCC)CC5)CC4)[C@H]3c3ccc(O)cc3)CC2)CC1 | 100 | 0 | –
O=C(OCC12CC3CC(CC(C3)C1)C2)[C@H]1[C@H](c2ccc(O)cc2)[C@H](C(=O)OCC23CC4CC(CC(C4)C2)C3)[C@H]1c1ccc(O)cc1 | 98 | 27.8 | –
CC(C)OCCOC(=O)[C@H]1[C@H](c2ccc(O)cc2)[C@H](C(=O)OCCOC(C)C)[C@H]1c1ccc(O)cc1 | 100 | 22 | –
CCCOCCOC(=O)[C@H]1[C@H](c2ccc(O)cc2)[C@H](C(=O)OCCOCCC)[C@H]1c1ccc(O)cc1 | 100 | 23.6 | –
CCCCOCCOC(=O)[C@H]1[C@H](c2ccc(O)cc2)[C@H](C(=O)OCCOCCCC)[C@H]1c1ccc(O)cc1 | 95 | 45.8 | IC50 (RAW264.7 [3]): 44.5 µM; IC50 (RAW264.7 [4]): 32.6 µM
COCCOCCOC(=O)[C@H]1[C@H](c2ccc(O)cc2)[C@H](C(=O)OCCOCCOC)[C@H]1c1ccc(O)cc1 | 100 | 21.9 | –
COCCOCCOCCOC(=O)[C@H]1[C@H](c2ccc(O)cc2)[C@H](C(=O)OCCOCCOCCOC)[C@H]1c1ccc(O)cc1 | 100 | 11.9 | –
CCOCCOCCOCCOC(=O)[C@H]1[C@H](c2ccc(O)cc2)[C@H](C(=O)OCCOCCOCCOCC)[C@H]1c1ccc(O)cc1 | 100 | 15.7 | –
O=C(OCCF)[C@H]1[C@H](c2ccc(O)cc2)[C@H](C(=O)OCCF)[C@H]1c1ccc(O)cc1 | 100 | 13 | –

Compound | viability at 18 h, 25 µM [1] [%] | inhibition at 25 µM (RAW264.7 [2]) [%] | further results
O=C(OCC(F)(F)F)[C@H]1[C@H](c2ccc(O)cc2)[C@H](C(=O)OCC(F)(F)F)[C@H]1c1ccc(O)cc1 | 78 | 65.3 | IC50 (RAW264.7 [3]): 38.5 µM; IC50 (RAW264.7 [4]): 20.8 µM
O=C(OCC(F)(F)C(F)F)[C@H]1[C@H](c2ccc(O)cc2)[C@H](C(=O)OCC(F)(F)C(F)F)[C@H]1c1ccc(O)cc1 | 100 | 15.7 | –
O=C(OC(C(F)(F)F)C(F)(F)F)[C@H]1[C@H](c2ccc(O)cc2)[C@H](C(=O)OC(C(F)(F)F)C(F)(F)F)[C@H]1c1ccc(O)cc1 | 32.6 | 55 | IC50 (RAW264.7 [3]): 17.6 µM; IC50 (RAW264.7 [4]): 22.6 µM
CSCCOC(=O)[C@H]1[C@H](c2ccc(O)cc2)[C@H](C(=O)OCCSC)[C@H]1c1ccc(O)cc1 | 100 | 24.4 | –
O=C(OCCI)[C@H]1[C@H](c2ccc(O)cc2)[C@H](C(=O)OCCI)[C@H]1c1ccc(O)cc1 | 98 | 49.9 | –
C=C(C)COC(=O)[C@H]1[C@H](c2ccc(O)cc2)[C@H](C(=O)OCC(=C)C)[C@H]1c1ccc(O)cc1 | 100 | 27.9 | –
CCC/C=C/COC(=O)[C@H]1[C@H](c2ccc(O)cc2)[C@H](C(=O)OC/C=C/CCC)[C@H]1c1ccc(O)cc1 | 40 | 72.3 | IC50 (RAW264.7 [3]): 19.3 µM; IC50 (RAW264.7 [4]): 17.6 µM
CC(C)=CCC/C(C)=C\COC(=O)[C@H]1[C@H](c2ccc(O)cc2)[C@H](C(=O)OC/C=C(/C)CCC=C(C)C)[C@H]1c1ccc(O)cc1 | 56 | 42.6 | –
CC(C)=CCC/C(C)=C/COC(=O)[C@H]1[C@H](c2ccc(O)cc2)[C@H](C(=O)OC/C=C(\C)CCC=C(C)C)[C@H]1c1ccc(O)cc1 | 80 | 33.9 | –
C=C(C)C1CC=C(COC(=O)[C@H]2[C@H](c3ccc(O)cc3)[C@H](C(=O)OCC3=CCC(C(=C)C)CC3)[C@H]2c2ccc(O)cc2)CC1 (stereo not given in full) | 78 | 36.1 | –
C#CCCOC(=O)[C@H]1[C@H](c2ccc(O)cc2)[C@H](C(=O)OCCC#C)[C@H]1c1ccc(O)cc1 | 100 | 28.3 | –
C#CCOCCOC(=O)[C@H]1[C@H](c2ccc(O)cc2)[C@H](C(=O)OCCOCC#C)[C@H]1c1ccc(O)cc1 | 100 | 13.5 | –
CC(C)(C)[Si](C)(C)Oc1ccc(/C=C/C(=O)O)cc1 | – | 0 | inhibition at 100 µM (RAW264.7 [6]): 6.5%; inhibition at 50 µM (RAW264.7 [7]): 2.2%; inhibition at 12.5 µM (RAW264.7 [8]): 0%
O=C(O)[C@H]1[C@H](c2ccc(O)cc2)[C@H](C(=O)O)[C@H]1c1ccc(O)cc1 | 100 | 5.5 | –
O=C(OCC1CC1)[C@H]1[C@H](c2ccc(O)cc2)[C@H](C(=O)OCC2CC2)[C@H]1c1ccc(O)cc1 | 95 | 33.9 | –
O=C(OC1CCC1)[C@H]1[C@H](c2ccc(O)cc2)[C@H](C(=O)OC2CCC2)[C@H]1c1ccc(O)cc1 | 62.6 | 55 | IC50 (RAW264.7 [3]): 32.3 µM; IC50 (RAW264.7 [4]): 19.8 µM
O=C(OC1CCCC1)[C@H]1[C@H](c2ccc(O)cc2)[C@H](C(=O)OC2CCCC2)[C@H]1c1ccc(O)cc1 | 58 | 62.1 | IC50 (RAW264.7 [3]): 31.2 µM; IC50 (RAW264.7 [4]): 21.1 µM
O=C(O)/C=C/c1ccc(O)cc1 [COUMARIC ACID] | – | 0 | inhibition at 100 µM (RAW264.7 [6]): 13.2%; inhibition at 50 µM (RAW264.7 [7]): 6.5%; inhibition at 12.5 µM (RAW264.7 [8]): 0%
N=C(N)NN [PIMAGEDINE] | – | 56 | inhibition at 50 µM (RAW264.7 [7]): 71%; IC50 (RAW264.7 [4]): 18.7 µM
